{
  "source": "patent US20200222564A1",
  "about": "“Compound Amphiphilic Peptide Nanomicelle, Preparation and Use Thereof” (Tianjin University, priority 2019, published 2020)",
  "tested_on": "CNE-2Z cells",
  "assay": "CCK-8 cytotoxicity in CNE-2Z cells",
  "format": "cell-based",
  "conditions": "0-100 μg/mL, 24 h in the dark",
  "method": "First of all, the designed concentration (0, 20, 40, 60, 80 and 100 μg/mL) solution of nanomicelle and rose bengal were prepared with 1640 medium. CNE-2Z cells were seeded into a 96-well player at a density of 2×10^4 cells per well. Each sample with a certain concentration was added to 5 wells. The cytotoxicity of the pure rose bengal and the nanomicelle solution at different concentrations was compared. After culturing for 48 hours, the cells were grown to 80%, and the medium containing different volumes of nanomicelle and rose bengal solution was added instead of the original medium according to the experimental group setting. After an additional incubation for 24 h at 37° C. in the dark, fresh medium (100 μL) together with CCK-8 (10 μL) was added followed by […] on a microplate reader at a wavelength of 450 nm. Cell viability was calculated according to the formula, with the maximum and minimum of OD values excluded:\nCell Viability=average of (OD−ODblk)/average of (OD0−ODblk)×100%",
  "data": [
    {"smiles": "O=C([O-])c1c(Cl)c(Cl)c(Cl)c(Cl)c1-c1c2cc(I)c(=O)c(I)c-2oc2c(I)c([O-])c(I)cc12.[Na+].[Na+]", "note": "[Rose Bengal]", "values": [
      {"measurement": "toxicity to CNE-2Z cells", "result": "less toxic"}
    ]}
  ]
}
